# Reference: ChEMBL document CHEMBL1255475, “Mutant prevention concentrations of four carbapenems against gram-negative rods” (2010)
# Legend:
# Escherichia coli [1] = assay: Antibacterial activity against beta-lactamase-negative Escherichia coli E344 incubated up to 7 days by agar dilution method; assay type: functional; details: E344, 168 h
# Escherichia coli [2] = assay: Ratio of mutant prevention concentration to minimum Inhibitory concentration for beta-lactamase-negative Escherichia coli E347; assay type: functional
# Escherichia coli [3] = assay: Ratio of mutant prevention concentration to minimum Inhibitory concentration for beta-lactamase-negative Escherichia coli E348; assay type: functional
# Escherichia coli [4] = assay: Ratio of mutant prevention concentration to minimum Inhibitory concentration for beta-lactamase-positive ESBL-positive Escherichia coli E458; assay type: functional
# Escherichia coli [5] = assay: Ratio of mutant prevention concentration to minimum Inhibitory concentration for beta-lactamase-positive ESBL-negative Escherichia coli E437; assay type: functional
# Escherichia coli [6] = assay: Ratio of mutant prevention concentration to minimum Inhibitory concentration for beta-lactamase-negative Escherichia coli E425; assay type: functional
# Escherichia coli [7] = assay: Ratio of mutant prevention concentration to minimum Inhibitory concentration for beta-lactamase-positive ESBL-positive Escherichia coli E446; assay type: functional
# Escherichia coli [8] = assay: Ratio of mutant prevention concentration to minimum Inhibitory concentration for beta-lactamase-positive ESBL-positive Escherichia coli E450; assay type: functional
# Escherichia coli [9] = assay: Ratio of mutant prevention concentration to minimum Inhibitory concentration for beta-lactamase-positive ESBL-positive Escherichia coli E452; assay type: functional
# Escherichia coli [10] = assay: Ratio of mutant prevention concentration to minimum Inhibitory concentration for beta-lactamase-positive ESBL-negative Escherichia coli E430; assay type: functional
# Escherichia coli [11] = assay: Ratio of mutant prevention concentration to minimum Inhibitory concentration for beta-lactamase-positive ESBL-positive Escherichia coli E460; assay type: functional
# Klebsiella pneumoniae [12] = assay: Ratio of mutant prevention concentration to minimum Inhibitory concentration for beta-lactamase-negative Klebsiella pneumoniae E357; assay type: functional
# Klebsiella pneumoniae [13] = assay: Ratio of mutant prevention concentration to minimum Inhibitory concentration for beta-lactamase-negative Klebsiella pneumoniae E360; assay type: functional
# Klebsiella pneumoniae [14] = assay: Ratio of mutant prevention concentration to minimum Inhibitory concentration for beta-lactamase-negative Klebsiella pneumoniae E361; assay type: functional
# Klebsiella pneumoniae [15] = assay: Ratio of mutant prevention concentration to minimum Inhibitory concentration for beta-lactamase-negative Klebsiella pneumoniae E362; assay type: functional
# Klebsiella pneumoniae [16] = assay: Ratio of mutant prevention concentration to minimum Inhibitory concentration for beta-lactamase-negative Klebsiella pneumoniae E418; assay type: functional
# Klebsiella pneumoniae [17] = assay: Ratio of mutant prevention concentration to minimum Inhibitory concentration for beta-lactamase-positive ESBL-positive Klebsiella pneumoniae E476; assay type: functional
# Klebsiella pneumoniae [18] = assay: Ratio of mutant prevention concentration to minimum Inhibitory concentration for beta-lactamase-positive ESBL-negative Klebsiella pneumoniae E472; assay type: functional
# Klebsiella pneumoniae [19] = assay: Ratio of mutant prevention concentration to minimum Inhibitory concentration for beta-lactamase-positive ESBL-positive Klebsiella pneumoniae E475; assay type: functional
# Klebsiella pneumoniae [20] = assay: Ratio of mutant prevention concentration to minimum Inhibitory concentration for beta-lactamase-positive ESBL-negative Klebsiella pneumoniae E473; assay type: functional
# Klebsiella pneumoniae [21] = assay: Ratio of mutant prevention concentration to minimum Inhibitory concentration for beta-lactamase-positive ESBL-negative Klebsiella pneumoniae E477; assay type: functional
# Klebsiella pneumoniae [22] = assay: Ratio of mutant prevention concentration to minimum Inhibitory concentration for beta-lactamase-positive ESBL-positive Klebsiella pneumoniae E478; assay type: functional
# Klebsiella pneumoniae [23] = assay: Ratio of mutant prevention concentration to minimum Inhibitory concentration for beta-lactamase-negative Klebsiella pneumoniae E417; assay type: functional
# Klebsiella pneumoniae [24] = assay: Ratio of mutant prevention concentration to minimum Inhibitory concentration for beta-lactamase-positive ESBL-negative Klebsiella pneumoniae E507; assay type: functional
# Pseudomonas aeruginosa [25] = assay: Antibacterial activity against Pseudomonas aeruginosa P369 incubated up to 7 days by agar dilution method; assay type: functional; details: P369, 168 h
# Pseudomonas aeruginosa [26] = assay: Antibacterial activity against Pseudomonas aeruginosa P373 incubated up to 7 days by agar dilution method; assay type: functional; details: P373, 168 h
# Pseudomonas aeruginosa [27] = assay: Antibacterial activity against Pseudomonas aeruginosa P335 incubated up to 7 days by agar dilution method; assay type: functional; details: P335, 168 h
# Pseudomonas aeruginosa [28] = assay: Antibacterial activity against Pseudomonas aeruginosa P319 incubated up to 7 days by agar dilution method; assay type: functional; details: P319, 168 h
# Pseudomonas aeruginosa [29] = assay: Antibacterial activity against Pseudomonas aeruginosa P320 incubated up to 7 days by agar dilution method; assay type: functional; details: P320, 168 h
# Pseudomonas aeruginosa [30] = assay: Antibacterial activity against Pseudomonas aeruginosa P322 incubated up to 7 days by agar dilution method; assay type: functional; details: P322, 168 h
# Pseudomonas aeruginosa [31] = assay: Antibacterial activity against Pseudomonas aeruginosa P327 incubated up to 7 days by agar dilution method; assay type: functional; details: P327, 168 h
# Pseudomonas aeruginosa [32] = assay: Antibacterial activity against Pseudomonas aeruginosa P323 incubated up to 7 days by agar dilution method; assay type: functional; details: P323, 168 h
# Pseudomonas aeruginosa [33] = assay: Antibacterial activity against Pseudomonas aeruginosa P328 incubated up to 7 days by agar dilution method; assay type: functional; details: P328, 168 h
# Pseudomonas aeruginosa [34] = assay: Antibacterial activity against Pseudomonas aeruginosa P365 incubated up to 7 days by agar dilution method; assay type: functional; details: P365, 168 h
# Pseudomonas aeruginosa [35] = assay: Antibacterial activity against Pseudomonas aeruginosa P340 incubated up to 7 days by agar dilution method; assay type: functional; details: P340, 168 h
# Acinetobacter baumannii [36] = assay: Antibacterial activity against Acinetobacter baumannii A865 assessed as mutant prevention concentration after overnight incubation; assay type: functional
# Acinetobacter baumannii [37] = assay: Antibacterial activity against Acinetobacter baumannii A867 assessed as mutant prevention concentration after overnight incubation; assay type: functional
# Pseudomonas aeruginosa [38] = assay: Antibacterial activity against Pseudomonas aeruginosa P363 incubated up to 7 days by agar dilution method; assay type: functional; details: P363, 168 h
# Pseudomonas aeruginosa [39] = assay: Antibacterial activity against Pseudomonas aeruginosa P341 incubated up to 7 days by agar dilution method; assay type: functional; details: P341, 168 h
# Acinetobacter baumannii [40] = assay: Antibacterial activity against Acinetobacter baumannii A848 incubated up to 7 days by agar dilution method; assay type: functional; details: A848, 168 h
# Acinetobacter baumannii [41] = assay: Antibacterial activity against Acinetobacter baumannii A929 incubated up to 7 days by agar dilution method; assay type: functional; details: A929, 168 h
# Acinetobacter baumannii [42] = assay: Antibacterial activity against Acinetobacter baumannii A890 incubated up to 7 days by agar dilution method; assay type: functional; details: A890, 168 h
# Acinetobacter baumannii [43] = assay: Antibacterial activity against Acinetobacter baumannii A891 incubated up to 7 days by agar dilution method; assay type: functional; details: A891, 168 h
# Acinetobacter baumannii [44] = assay: Antibacterial activity against Acinetobacter baumannii A901 incubated up to 7 days by agar dilution method; assay type: functional; details: A901, 168 h
# Acinetobacter baumannii [45] = assay: Antibacterial activity against Acinetobacter baumannii A896 incubated for 24 h by agar dilution method; details: A896, 24 h
# Acinetobacter baumannii [46] = assay: Antibacterial activity against Acinetobacter baumannii A908 incubated for 24 h by agar dilution method; details: A908, 24 h
# Acinetobacter baumannii [47] = assay: Antibacterial activity against Acinetobacter baumannii A864 incubated for 24 hrs by agar dilution method; details: A864, 24 h
# Acinetobacter baumannii [48] = assay: Antibacterial activity against Acinetobacter baumannii A898 incubated for 24 hrs by agar dilution method; details: A898, 24 h
# Acinetobacter baumannii [49] = assay: Antibacterial activity against Acinetobacter baumannii A931 incubated for 24 hrs by agar dilution method; details: A931, 24 h
smiles,measurement,setting,value
C[C@@H](O)[C@H]1C(=O)N2C(C(=O)O)=C(S[C@@H]3CN[C@H](C(=O)Nc4cccc(C(=O)O)c4)C3)[C@H](C)[C@H]12,MIC,Escherichia coli [1],0.008 µg/mL
same,Ratio,Escherichia coli [2],4
same,Ratio,Escherichia coli [3],4
same,Ratio,Escherichia coli [4],16
same,Ratio,Escherichia coli [5],2
same,Ratio,Escherichia coli [6],4
same,Ratio,Escherichia coli [7],4
same,Ratio,Escherichia coli [8],>16
same,Ratio,Escherichia coli [9],8
same,Ratio,Escherichia coli [10],>8
same,Ratio,Escherichia coli [11],4
same,Ratio,Klebsiella pneumoniae [12],4
same,Ratio,Klebsiella pneumoniae [13],4
same,Ratio,Klebsiella pneumoniae [14],4
same,Ratio,Klebsiella pneumoniae [15],4
same,Ratio,Klebsiella pneumoniae [16],2
same,Ratio,Klebsiella pneumoniae [17],4
same,Ratio,Klebsiella pneumoniae [18],8
same,Ratio,Klebsiella pneumoniae [19],2
same,Ratio,Klebsiella pneumoniae [20],4
same,Ratio,Klebsiella pneumoniae [21],4
same,Ratio,Klebsiella pneumoniae [22],2
same,Ratio,Klebsiella pneumoniae [23],2
same,Ratio,Klebsiella pneumoniae [24],8
C[C@@H](O)[C@H]1C(=O)N2C(C(=O)O)=C(S[C@@H]3CN[C@H](CNS(N)(=O)=O)C3)[C@H](C)[C@H]12 [DORIPENEM],MIC,Escherichia coli [1],0.03 µg/mL
same,MIC,Pseudomonas aeruginosa [25],0.25 µg/mL
same,MIC,Pseudomonas aeruginosa [26],0.5 µg/mL
same,MIC,Pseudomonas aeruginosa [27],2 µg/mL
same,MIC,Pseudomonas aeruginosa [28],2 µg/mL
same,MIC,Pseudomonas aeruginosa [29],0.25 µg/mL
same,MIC,Pseudomonas aeruginosa [30],0.5 µg/mL
same,MIC,Pseudomonas aeruginosa [31],0.25 µg/mL
same,MIC,Pseudomonas aeruginosa [32],0.5 µg/mL
same,MIC,Pseudomonas aeruginosa [33],2 µg/mL
same,MIC,Pseudomonas aeruginosa [34],0.5 µg/mL
same,MIC,Pseudomonas aeruginosa [35],0.125 µg/mL
same,Ratio,Escherichia coli [2],2
same,Ratio,Escherichia coli [3],2
same,MPC,Acinetobacter baumannii [36],64 µg/mL
same,MPC,Acinetobacter baumannii [37],64 µg/mL
same,Ratio,Escherichia coli [4],2
same,Ratio,Escherichia coli [5],2
same,Ratio,Escherichia coli [6],2
same,Ratio,Escherichia coli [7],2
same,Ratio,Escherichia coli [8],4
same,Ratio,Escherichia coli [9],4
same,Ratio,Escherichia coli [10],4
same,Ratio,Escherichia coli [11],4
same,Ratio,Klebsiella pneumoniae [12],2
same,Ratio,Klebsiella pneumoniae [13],2
same,Ratio,Klebsiella pneumoniae [14],2
same,Ratio,Klebsiella pneumoniae [15],2
same,Ratio,Klebsiella pneumoniae [16],2
same,Ratio,Klebsiella pneumoniae [17],4
same,Ratio,Klebsiella pneumoniae [18],>16
same,Ratio,Klebsiella pneumoniae [19],8
same,Ratio,Klebsiella pneumoniae [20],4
same,Ratio,Klebsiella pneumoniae [21],>16
same,Ratio,Klebsiella pneumoniae [22],>16
same,Ratio,Klebsiella pneumoniae [23],2
same,Ratio,Klebsiella pneumoniae [24],>16
same,MIC,Pseudomonas aeruginosa [38],0.25 µg/mL
same,MIC,Pseudomonas aeruginosa [39],0.5 µg/mL
same,MIC,Acinetobacter baumannii [40],8 µg/mL
same,MIC,Acinetobacter baumannii [41],2 µg/mL
same,MIC,Acinetobacter baumannii [42],0.25 µg/mL
same,MIC,Acinetobacter baumannii [43],0.5 µg/mL
same,MIC,Acinetobacter baumannii [44],4 µg/mL
same,MIC,Acinetobacter baumannii [45],0.5 µg/mL
same,MIC,Acinetobacter baumannii [46],0.5 µg/mL
same,MIC,Acinetobacter baumannii [47],8 µg/mL
same,MIC,Acinetobacter baumannii [48],2 µg/mL
same,MIC,Acinetobacter baumannii [49],1 µg/mL
C[C@@H](O)[C@H]1C(=O)N2C(C(=O)O)=C(SCCNC=N)C[C@H]12 [IMIPENEM ANHYDROUS],MPC,Acinetobacter baumannii [36],32 µg/mL
same,MPC,Acinetobacter baumannii [37],64 µg/mL
C[C@@H](O)[C@H]1C(=O)N2C(C(=O)O)=C(S[C@@H]3CN[C@H](C(=O)N(C)C)C3)[C@H](C)[C@H]12 [MEROPENEM],MIC,Pseudomonas aeruginosa [25],0.5 µg/mL
same,MIC,Pseudomonas aeruginosa [26],0.5 µg/mL
same,MIC,Pseudomonas aeruginosa [27],4 µg/mL
same,MIC,Pseudomonas aeruginosa [28],2 µg/mL
same,MIC,Pseudomonas aeruginosa [29],0.5 µg/mL
same,MIC,Pseudomonas aeruginosa [30],2 µg/mL
same,MIC,Pseudomonas aeruginosa [31],0.25 µg/mL
same,MIC,Pseudomonas aeruginosa [32],0.5 µg/mL
same,MIC,Pseudomonas aeruginosa [33],2 µg/mL
same,MIC,Pseudomonas aeruginosa [34],1 µg/mL
same,MIC,Pseudomonas aeruginosa [35],0.25 µg/mL
same,MIC,Pseudomonas aeruginosa [38],0.5 µg/mL
same,MIC,Pseudomonas aeruginosa [39],0.5 µg/mL
same,MIC,Acinetobacter baumannii [40],8 µg/mL
same,MIC,Acinetobacter baumannii [41],2 µg/mL
same,MIC,Acinetobacter baumannii [42],0.5 µg/mL
same,MIC,Acinetobacter baumannii [43],1 µg/mL
same,MIC,Acinetobacter baumannii [44],2 µg/mL
same,MIC,Acinetobacter baumannii [45],1 µg/mL
same,MIC,Acinetobacter baumannii [46],1 µg/mL
same,MIC,Acinetobacter baumannii [47],8 µg/mL
same,MIC,Acinetobacter baumannii [48],2 µg/mL
same,MIC,Acinetobacter baumannii [49],1 µg/mL
